The results in this text go back to patent publication US6784201B2, “Benzothiepines having activity as inhibitors of ileal bile acid transport and taurocholate uptake” (G.D. Searle & Company, priority 1994, dated 2004).

Read-outs that look alike come from different tables or passages of the source. Bounds are passed on as bounds.

In data set [1] the target is T1, human IBAT (Homo sapiens, UniProt Q12908).
T1 construct: expressed in transfected cells; host or cells: Baby hamster kidney (BHK) cells, clone H14
T1 sequence (Q12908 1-348): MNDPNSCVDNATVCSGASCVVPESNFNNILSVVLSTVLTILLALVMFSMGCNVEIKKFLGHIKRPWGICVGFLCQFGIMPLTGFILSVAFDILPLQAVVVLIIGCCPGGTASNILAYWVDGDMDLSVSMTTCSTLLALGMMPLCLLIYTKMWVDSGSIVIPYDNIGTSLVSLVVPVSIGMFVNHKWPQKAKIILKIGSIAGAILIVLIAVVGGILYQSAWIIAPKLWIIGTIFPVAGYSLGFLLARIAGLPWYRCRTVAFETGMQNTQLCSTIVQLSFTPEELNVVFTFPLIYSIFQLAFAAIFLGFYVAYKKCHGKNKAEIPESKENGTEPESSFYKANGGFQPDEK
Nature of the data set: In vitro assay of IBAT-mediated uptake of [14C]-taurocholate (TC) in H14 cells. In kind it is cell-based. A digest of the protocol: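 BHK cells stably expressing human IBAT (H14) were incubated 2 h at 37° C with compound and 3 μM final [14C]-taurocholate in DMEM (4.5 g/L glucose) plus 0.2% fatty acid-free BSA. After cold PBS washes, cell-associated radioactivity was measured by scintillation counting.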

For data set [2], the system named is H14 cells. Nature of the data set: In vitro assay of uptake of [14C]-alanine. In kind it is cell-based, hamster. The following applies: Mesocricetus auratus. As to the method:
Baby hamster kidney cells (BHK) transfected with the cDNA of human IBAT (H14 cells) are seeded at 60,000 cells/well in 96 well Top-Count tissue culture plates for assays run within in 24 hours of seeding, 30,000 cells/well for assays run within 48 hours, and 10,000 cells/well for assays run within 72 hours.
On the day of assay, the cell monolayer is gently washed once with 100 μl assay buffer (Dulbecco's Modified Eagle's medium with 4.5 g/L glucose+0.2% (w/v) fatty acid free bovine serum albumin-(FAF)BSA). To each well 50 μl of a two-fold concentrate of test compound in assay buffer is added along with 50 μl of 6 μM [^14C]-taurocholate in assay buffer (final concentration of 3 μM [^14C]-taurocholate). The cell culture plates are incubated 2 hours at 37° C. prior to gently washing each well twice with 100 μl 4° C. Dulbecco's phosphate-buffered saline (PBS) containing 0.2% (w/v) (FAF)BSA. The wells are then gently washed once with 100 μl 4° C. PBS without (FAF)BSA. To each 200 μl of liquid scintillation counting fluid is added, the plates are heat sealed and shaken for 30 minutes at room temperature prior to measuring the amount of radioactivity in each well on a Packard Top-Count instrument.
In Vitro Assay of Compounds that Inhibit Uptake of [^14C3-Alanine
The alanine uptake assay is performed in an identical fashion to the taurocholate assay, with the exception that labeled alanine is substituted for the labeled taurocholate.

Data set [3] deals with Rat Ileal Uptake of [14C]-Taurocholate. Nature of the data set: In vivo assay of rat ileal uptake of [14C]-taurocholate into bile (ileal loop). The following applies: Rattus norvegicus; for activity at 100 µM: read-out: % of Control Transport of TC in Rat Ileum @ 0.1 mM. As for the experimental part:
In Vivo Assay of Compounds that Inhibit Rat Ileal Uptake of [^14C]-Taurocholate into Bile
(See “Metabolism of 3α,7β-dihydroxy-7α-methyl-5β-cholanoic acid and 3α,7β-dihydroxy-7α-methyl-5β-cholanoic acid in hamsters” in Biochimica et Biophysica Acta 833 (1985) 196-202 by Une et al.)
Male wistar rats (200-300 g) are anesthetized with inactin @100 mg/kg. Bile ducts are cannulated with a 10″ length of PE10 tubing. The small intestine is exposed and laid out on a gauze pad. A canulae (⅛″ luer lock, tapered female adapter) is inserted at 12 cm from the junction of the small intestine and the cecum. A slit is cut at 4 cm from this same junction (utilizing a 8 cm length of ileum). 20 ml of warm Dulbecco's phosphate buffered saline, pH 6.5 (PBS) is used to flush out the intestine segment. The distal opening is cannulated with a 20 cm length of silicone tubing (0.02″ I.D.×0.037″ O.D.). The proximal cannulae is hooked up to a peristaltic pump and the intestine is washed for 20 min with warm PBS at 0.25 ml/min. Temperature of the gut segment is monitored continuously. At the start of the experiment, 2.0 ml of control sample ([^14C]-taurocholate @ 0.05 mi/ml with 5 mM cold taurocholate) is loaded into the gut segment with a 3 ml syringe and bile sample collection is begun. Control sample is infused at a rate of 0.25 ml/min for 21 min. Bile samples fractions are collected every 3 minute for the first 27 minutes of the procedure. After the 21 min of sample infusion, the ileal loop is washed out with 20 ml of warm PBS (using a 30 ml syringe), and then the loop is washed out for 21 min with warm PBS at 0.25 ml/min. A second perfusion is initiated as described above but this with test compound being administered as well (21 min administration followed by 21 min of wash out) and bile sampled every 3 min for the first 27 min. If necessary, a third perfusion is performed as above that typically contains the control sample.

Data set [4] deals with fecal bile acid (FBA). Nature of the data set: Rat gavage assay (fecal bile acid increase). Type of data set: in vivo.
[5] abbreviates: H14 cells, Table 5, read-out: IC50 uM (In vitro Taurocholate Cell Uptake).
[6] abbreviates: In Vitro Taurocholate Uptake, Table 10, read-out: Human TC IC50.

As for `CCCC[C@]1(CC)CS(=O)(=O)c2ccccc2[C@@H](c2ccccc2)C1=O` (relative stereo) [Example 5b, trans-3-Butyl-3-ethyl-5-phenyl-2,3-dihydro-benzothiepin-(5H) 4-one-1,1-dioxide], the IC50 in data set [1] (setting [5]) is 40 µM. In addition, the inhibition at 100 µM in data set [2] stood at 0%. Besides, the activity at 500 µM in data set [3] (0.5 mM, read-out: % of Control Transport of TC in Rat Ileum) amounted to 72.9 ± 5.4%.

As for `CCCC[C@@]1(CC)C[C@@H](c2ccccc2)c2ccccc2S(=O)(=O)C1` (relative stereo) [Example 9a, cis-3-Butyl-3-ethyl-5-phenyl-2,3,4,5-tetrahydrobenzothiepine-1,1-dioxide], the IC50 in data set [1] (setting [5]) was determined as 5 µM. In data set [2], this compound came in with an inhibition at 25 µM of 0%. Besides, the activity at 100 µM in data set [3] was determined as 53.7%.

`CCCC[C@]1(CC)CS(=O)(=O)c2ccccc2[C@H](c2ccccc2)[C@@H]1O` [Example 6c, (3α,4α,5α) 3-Butyl-3-ethyl-4-hydroxy-5-phenyl-2,3,4,5-tetrahydrobenzothiepine-1,1-dioxide]: the half-inhibitory concentration (IC50) in data set [1] (setting [5]) was 2 µM. For the same compound, the inhibition at 100 µM in data set [2] is 58.5%. In addition, the activity at 400 µM in data set [3] (0.4 mM, read-out: % of Control Transport of TC in Rat Ileum) amounted to 68.8%.

Consider `CCCC[C@]1(CC)CS(=O)(=O)c2cc(OC)ccc2[C@H](c2ccccc2)[C@@H]1O` [Example 26, (3α,4α,5α) 3-Butyl-3-ethyl-4-hydroxy-8-methoxy-5-phenyl-2,3,4,5-tetrahydrobenzothiepine-1,1-dioxide], for which, in data set [1] (setting [5]), the IC50 was 2 µM. This compound returned an inhibition at 25 µM in data set [2] of 31%. The activity at 100 µM in data set [3] was determined as 87.9%.

Turning to `CC1(C)CS(=O)(=O)c2ccc(N)cc2[C@@H](c2ccccc2)[C@H]1O` [Example 288], the melting point lay in the range of 185 to 186 °C. For the same compound, in data set [2] (@ 6.25 μM, read-out: Alanine Uptake Percent Inhibition @ μM), the inhibition at 6.25 µM was 10%.

Consider `CCCCC1(CCCC)CS(=O)(=O)c2ccc(N(C)C)cc2[C@@H](c2ccc(OCCCCC[N+](C)(C)CC[N+](C)(C)CC)cc2)[C@H]1O` [Example 1418, (4R-cis)-N-[5-[4-[3,3-Dibutyl-7-(dimethylamino)-2,3,4,5-tetrahydro-4-hydroxy-1,1-dioxido-1-benzothiepin-5-yl]phenoxy]pentyl]-N′-ethyl-N,N,N′,N′-tetramethyl-1,2-ethanediaminium dichloride], for which the melting point lay in the range of 193 to 197 °C. In addition, the IC50 in data set [1] (setting [6]) was less than 0.001 µM. The “Delta (micromoles fecal bile acid per day)” value in data set [4] (dose 2 mg/kg/day) is 20.3 micromoles fecal bile acid per day. In addition, the “Delta (micromoles fecal bile acid per day)” value in data set [4] (dose .016 mg/kg/day) is on record as −10 micromoles fecal bile acid per day. The “Delta (micromoles fecal bile acid per day)” value in data set [4] (dose .08 mg/kg/day) was −4.6 micromoles fecal bile acid per day. Also, the “Delta (micromoles fecal bile acid per day)” value in data set [4] (dose .4 mg/kg/day) is recorded as 29.5 micromoles fecal bile acid per day.

`CCCCC1(CCCC)CS(=O)(=O)c2ccc(N(C)C)cc2[C@@H](c2ccc(OCCCCCc3nn[nH]n3)cc2)[C@H]1O` [Example 1420, (4R-cis)-3,3-Dibutyl-7-(dimethylamino)-2,3,4,5-tetrahydro-5-[4-[[5-(1H-tetrazol-5-yl)pentyl]oxy]phenyl]-1-benzothiepin-4-ol 1,1-dioxide] came in with a melting point of 80 to 85 °C. The half-maximal inhibitory concentration (IC50) in data set [1] (setting [6]) was 0.011 µM. Also, the “Delta (micromoles fecal bile acid per day)” value in data set [4] (dose 2 mg/kg/day) is 53.1 micromoles fecal bile acid per day. Also, the “Delta (micromoles fecal bile acid per day)” value in data set [4] (dose .016 mg/kg/day) was 29.6 micromoles fecal bile acid per day. In addition, the “Delta (micromoles fecal bile acid per day)” value in data set [4] (dose .08 mg/kg/day) is 38.1 micromoles fecal bile acid per day. In data set [4] (dose .4 mg/kg/day), the “Delta (micromoles fecal bile acid per day)” value is on record as 45 micromoles fecal bile acid per day.

Compound `CCCCC1(CCCC)CS(=O)(=O)c2ccc(N(C)C)cc2[C@@H](c2ccc(OCCCCCOc3cc(C(=O)O)nc(C(=O)O)c3)cc2)[C@H]1O` [Example 1421] came in with a melting point of 143 °C. Besides, the IC50 in data set [1] (setting [6]) was found to be 0.004 µM. The “Delta (micromoles fecal bile acid per day)” value in data set [4] (dose 2 mg/kg/day) is recorded as 57.8 micromoles fecal bile acid per day. Further, in data set [4] (dose .016 mg/kg/day), the “Delta (micromoles fecal bile acid per day)” value is reported as 4.7 micromoles fecal bile acid per day. Moreover, the “Delta (micromoles fecal bile acid per day)” value in data set [4] (dose .08 mg/kg/day) is 25.3 micromoles fecal bile acid per day. Moreover, the “Delta (micromoles fecal bile acid per day)” value in data set [4] (dose .4 mg/kg/day) was 27.7 micromoles fecal bile acid per day.

Compound `CCCCC1(CCCC)CS(=O)(=O)c2ccc(N(C)C)cc2[C@@H](c2ccc(OCc3cccc(CCC(=O)O)n3)cc2)[C@H]1O` [Example 1430, (4R-cis)-6-[[4-[3,3-Dibutyl-7-(dimethylamino)-2,3,4,5-tetrahydro-4-hydroxy-1,1-dioxido-1-benzothiepin-5-yl]phenoxy]methyl]-2-pyridinepropanoic acid] came in with a melting point of 105 to 107 °C. Besides, the IC50 in data set [1] (setting [6]) is 0.003 µM. For the same compound, the “Delta (micromoles fecal bile acid per day)” value in data set [4] (dose 2 mg/kg/day) is 51.2 micromoles fecal bile acid per day. The “Delta (micromoles fecal bile acid per day)” value in data set [4] (dose .016 mg/kg/day) was −5.6 micromoles fecal bile acid per day. Besides, in data set [4] (dose .08 mg/kg/day), the “Delta (micromoles fecal bile acid per day)” value is reported as 20.7 micromoles fecal bile acid per day. Also, in data set [4] (dose .4 mg/kg/day), the “Delta (micromoles fecal bile acid per day)” value is recorded as 50.4 micromoles fecal bile acid per day.

Take `CCCCC1(CCCC)CS(=O)(=O)c2ccc(N(C)C)cc2[C@@H](c2ccc(OCCOCCC(C(=O)O)C(=O)O)cc2)[C@H]1O` [Example 1432, (4S-cis)-[2-[2-[4-[3,3-Dibutyl-7-(dimethylamino)-2,3,4,5-tetrahydro-4-hydroxy-1,1-dioxido-1-benzothiepin-5-yl]phenoxy]ethoxy]ethyl]propanedioic acid]: the melting point stood at 119.5 °C. The IC50 in data set [1] (setting [6]) is 0.026 µM. Besides, in data set [4] (dose 5 mg/kg/day), the “Delta (micromoles fecal bile acid per day)” value was 36.2 micromoles fecal bile acid per day. Moreover, in data set [4] (dose .04 mg/kg/day), the “Delta (micromoles fecal bile acid per day)” value is reported as 2.4 micromoles fecal bile acid per day. For the same compound, the “Delta (micromoles fecal bile acid per day)” value in data set [4] (dose .2 mg/kg/day) was 9.7 micromoles fecal bile acid per day.

By IC50 is commonly meant the concentration needed to halve the response being measured. As a reminder, the inhibition is the share of the control response that was lost under treatment. By melting point is commonly meant the temperature, or range, at which the solid turns liquid.
